This note sets out measurements from US20110130380A1, “Heteroaryl Kinase Inhibitors” (priority 2009, published 2011).

The assay concerns the target Cdk9/cyclinT1 (Homo sapiens, UniProt P50750). Description: Cdk9/cyclinT1 IMAP Protocol (fluorescence polarization kinase assay). Particulars: Cdk9_cyclinT1_IC50, Table V; generated using one of the two Cdk9/cyclinT1 assays (IMAP or Alpha Screen), not stated which; ATP 6 uM. A general note: In fluorescence polarisation assays a small probe gives low polarisation when free and higher when bound to something large.

Cdk9/cyclinT1, sequence (P50750 whole entry): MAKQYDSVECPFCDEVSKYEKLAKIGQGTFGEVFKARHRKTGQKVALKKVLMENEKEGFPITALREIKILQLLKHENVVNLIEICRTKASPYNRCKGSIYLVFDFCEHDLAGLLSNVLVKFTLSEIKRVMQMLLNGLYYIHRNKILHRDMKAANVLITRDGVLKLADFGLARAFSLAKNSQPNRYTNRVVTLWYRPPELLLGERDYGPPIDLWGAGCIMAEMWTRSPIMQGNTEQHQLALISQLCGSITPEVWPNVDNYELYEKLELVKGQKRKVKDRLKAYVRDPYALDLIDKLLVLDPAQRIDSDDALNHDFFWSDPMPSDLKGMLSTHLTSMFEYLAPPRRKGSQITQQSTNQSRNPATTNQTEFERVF
Cdk9/cyclinT1, sequence (O60563 whole entry partner): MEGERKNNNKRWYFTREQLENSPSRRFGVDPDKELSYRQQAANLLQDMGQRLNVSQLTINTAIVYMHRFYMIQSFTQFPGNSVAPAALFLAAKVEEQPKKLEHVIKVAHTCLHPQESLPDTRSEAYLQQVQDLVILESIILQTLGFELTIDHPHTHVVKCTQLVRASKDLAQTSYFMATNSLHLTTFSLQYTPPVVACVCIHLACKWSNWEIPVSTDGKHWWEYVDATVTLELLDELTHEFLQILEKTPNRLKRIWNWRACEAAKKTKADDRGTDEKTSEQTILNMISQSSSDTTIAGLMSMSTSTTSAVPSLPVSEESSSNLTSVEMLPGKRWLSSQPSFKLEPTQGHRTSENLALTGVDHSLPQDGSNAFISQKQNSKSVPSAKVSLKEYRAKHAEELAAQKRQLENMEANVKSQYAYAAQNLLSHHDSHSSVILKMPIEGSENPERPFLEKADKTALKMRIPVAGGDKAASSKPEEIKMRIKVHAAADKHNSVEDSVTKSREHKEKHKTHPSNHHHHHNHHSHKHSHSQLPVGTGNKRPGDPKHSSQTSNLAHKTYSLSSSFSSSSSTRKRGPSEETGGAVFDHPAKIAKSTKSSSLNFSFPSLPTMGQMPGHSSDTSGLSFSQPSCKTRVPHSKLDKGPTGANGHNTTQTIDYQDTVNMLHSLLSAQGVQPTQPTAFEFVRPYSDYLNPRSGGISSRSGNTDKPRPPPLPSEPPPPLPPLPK

For orientation: IC50 means the concentration that gives 50% inhibition. Higher therefore signals lower potency. In turn, `O=C(Nc1cc(-c2cccc(NCC3CCOCC3)n2)c(Cl)cn1)C1(F)CCCNC1` (stereo not drawn) [Example 95, 3-Fluoro-piperidine-3-carboxylic acid {5′-chloro-6-[(tetrahydro-pyran-4-ylmethyl)-amino]-[2,4′]bipyridinyl-2′-yl}-amide] displayed an IC50 of 167 nM.
Then `O=C(Nc1cc(-c2cccc(NCC3CCOCC3)n2)c(Cl)cn1)[C@H]1CNCCO1` [Example 96, (R)-Morpholine-2-carboxylic acid {5′-chloro-6-[(tetrahydro-pyran-4-ylmethyl)-amino]-[2,4′]bipyridinyl-2′-yl}-amide], with 5 nM; and `O=C(Nc1cc(-c2nc(NCC3CCOCC3)ccc2Cl)c(Cl)cn1)C1CCOCC1` [Example 97, Tetrahydro-pyran-4-carboxylic acid {3,5′-dichloro-6-[(tetrahydro-pyran-4-ylmethyl)-amino]-[2,4′]bipyridinyl-2′-yl}-amide], with 10 nM.
The same measure for `O=C(Nc1cc(-c2nc(NCC3CCOCC3)ccc2Cl)c(Cl)cn1)[C@H]1CCCNC1` [Example 98, (S)-Piperidine-3-carboxylic acid {3,5′-dichloro-6-[(tetrahydro-pyran-4-ylmethyl)-amino]-[2,4′]bipyridinyl-2′-yl}-amide]: 14 nM; for `N[C@@H]1CC[C@H](C(=O)Nc2cc(-c3nc(NCC4CCOCC4)ccc3Cl)c(Cl)cn2)C1` [Example 99, (1S,3R)-3-Amino-cyclopentanecarboxylic acid {3,5′-dichloro-6-[(tetrahydro-pyran-4-ylmethyl)-amino]-[2,4′]bipyridinyl-2′-yl}-amide]: under 8 nM.
Turning to `N[C@H]1CC[C@@H](C(=O)Nc2cc(-c3nc(NCC4CCOCC4)ccc3Cl)c(Cl)cn2)C1` [Example 100, (1R,3S)-3-Amino-cyclopentanecarboxylic acid {3,5′-dichloro-6-[(tetrahydro-pyran-4-ylmethyl)-amino]-[2,4′]bipyridinyl-2′-yl}-amide], the half-inhibitory concentration (IC50) is under 8 nM.
Then `O=C(Nc1cc(-c2nc(NCC3CCOCC3)ccc2Cl)c(Cl)cn1)[C@H]1CNCCO1` [Example 101, (R)-Morpholine-2-carboxylic acid {3,5′-dichloro-6-[(tetrahydro-pyran-4-ylmethyl)-amino]-[2,4′]bipyridinyl-2′-yl}-amide], with 8 nM.
The same measure for `O=C(Nc1cc(-c2nc(NCC3CCOCC3)ccc2Cl)c(Cl)cn1)[C@H]1CNC[C@H]1F` [Example 102, (3R,4S)-4-Fluoro-pyrrolidine-3-carboxylic acid {3,5′-dichloro-6-[(tetrahydro-pyran-4-ylmethyl)-amino]-[2,4′]bipyridinyl-2′-yl}-amide]: 9 nM.
Compound `O=C(COc1ccc(Cl)cn1)Nc1cc(-c2cccc(NCC3CCOCC3)n2)c(Cl)cn1` [Example 103, 2-(5-Chloro-pyridin-2-yloxy)-N-{5′-chloro-6-[(tetrahydro-pyran-4-ylmethyl)-amino]-[2,4′]bipyridinyl-2′-yl}-acetamide] showed an IC50 of 27 nM.
For `COC(=O)N1CCC[C@H](C(=O)Nc2cc(-c3nc(NCC4CCOCC4)ccc3Cl)c(Cl)cn2)C1` [Example 105, (S)-3-{3,5′-Dichloro-6-[(tetrahydro-pyran-4-ylmethyl)-amino]-[2,4′]bipyridinyl-2′-ylcarbamoyl}-piperidine-1-carboxylic acid methyl ester], the concentration for half-maximal inhibition (IC50) is under 8 nM.
The same measure for `COC(=O)N[C@@H]1CC[C@H](C(=O)Nc2cc(-c3nc(NCC4CCOCC4)ccc3Cl)c(Cl)cn2)C1` [Example 106, ((lR,3S)-3-{3,5′-Dichloro-6-[(tetrahydro-pyran-4-ylmethyl)-amino]-[2,4′]bipyridinyl-2′-ylcarbamoyl}-cyclopentyl)-carbamic acid methyl ester]: under 8 nM; for `COC(=O)N[C@H]1CC[C@@H](C(=O)Nc2cc(-c3nc(NCC4CCOCC4)ccc3Cl)c(Cl)cn2)C1` [Example 107, ((lS,3R)-3-{3,5′-Dichloro-6-[(tetrahydro-pyran-4-ylmethyl)-amino]-[2,4′]bipyridinyl-2′-ylcarbamoyl}-cyclopentyl)-carbamic acid methyl ester]: under 8 nM; for `CS(=O)(=O)N1CCC[C@H](C(=O)Nc2cc(-c3nc(NCC4CCOCC4)ccc3Cl)c(Cl)cn2)C1` [Example 108, (S)-1-Methanesulfonyl-piperidine-3-carboxylic acid {3,5′-dichloro-6-[(tetrahydro-pyran-4-ylmethyl)-amino]-[2,4′]bipyridinyl-2′-yl}-amide]: under 8 nM.
Then `CS(=O)(=O)N[C@@H]1CC[C@H](C(=O)Nc2cc(-c3nc(NCC4CCOCC4)ccc3Cl)c(Cl)cn2)C1` [Example 109, (1S,3R)-3-Methanesulfonylamino-cyclopentanecarboxylic acid {3,5′-dichloro-6-[(tetrahydro-pyran-4-ylmethyl)-amino]-[2,4′]bipyridinyl-2′-yl}-amide], with under 8 nM; and `CS(=O)(=O)N[C@H]1CC[C@@H](C(=O)Nc2cc(-c3nc(NCC4CCOCC4)ccc3Cl)c(Cl)cn2)C1` [Example 110, (1R,3S)-3-Methanesulfonylamino-cyclopentanecarboxylic acid {3,5′-dichloro-6-[(tetrahydro-pyran-4-ylmethyl)-amino]-[2,4′]bipyridinyl-2′-yl}-amide], with under 8 nM; and `CCS(=O)(=O)N1CCC[C@H](C(=O)Nc2cc(-c3nc(NCC4CCOCC4)ccc3Cl)c(Cl)cn2)C1` [Example 111, (S)-1-Ethanesulfonyl-piperidine-3-carboxylic acid {3,5′-dichloro-6-[(tetrahydro-pyran-4-ylmethyl)-amino]-[2,4′]bipyridinyl-2′-yl}-amide], with under 8 nM.
The same measure for `CC(C)S(=O)(=O)N1CCC[C@H](C(=O)Nc2cc(-c3nc(NCC4CCOCC4)ccc3Cl)c(Cl)cn2)C1` [Example 112, (S)-1-(Propane-2-sulfonyl)-piperidine-3-carboxylic acid {3,5′-dichloro-6-[(tetrahydro-pyran-4-ylmethyl)-amino]-[2,4′]bipyridinyl-2′-yl}-amide]: under 8 nM; for `CCS(=O)(=O)N[C@@H]1CC[C@H](C(=O)Nc2cc(-c3nc(NCC4CCOCC4)ccc3Cl)c(Cl)cn2)C1` [Example 113, (1S,3R)-3-Ethanesulfonylamino-cyclopentanecarboxylic acid {3,5′-dichloro-6-[(tetrahydro-pyran-4-ylmethyl)-amino]-[2,4′]bipyridinyl-2′-yl}-amide]: under 8 nM.
Compound `CC(C)S(=O)(=O)N[C@@H]1CC[C@H](C(=O)Nc2cc(-c3nc(NCC4CCOCC4)ccc3Cl)c(Cl)cn2)C1` [Example 114, (1S,3R)-3-(Propane-2-sulfonylamino)-cyclopentanecarboxylic acid {3,5′-dichloro-6-[(tetrahydro-pyran-4-ylmethyl)-amino]-[2,4′]bipyridinyl-2′-yl}-amide] had an IC50 of under 8 nM.
The same measure for `O=C(Nc1cc(-c2cccc(NCC3CCOCC3)n2)c(Cl)cn1)C1CNC1` [Example 119, Azetidine-3-carboxylic acid {5′-chloro-6-[(tetrahydro-pyran-4-ylmethyl)-amino]-[2,4′]bipyridinyl-2′-yl}-amide]: 14 nM.
Then `CC1(C)CC(CNc2cccc(-c3cc(NC(=O)[C@H]4CNCCO4)ncc3Cl)n2)CCO1` (stereo partly drawn) [Example 120, (R)-Morpholine-2-carboxylic acid {5′-chloro-6-[(2,2-dimethyl-tetrahydro-pyran-4-ylmethyl)-amino]-[2,4′]bipyridinyl-2′-yl}-amide], with under 8 nM.
